Patent US9730944B2, “Antiviral activity of novel bicyclic heterocycles” (priority 2010, dated 2017)
Converted amounts (≈) assume the structure as drawn. Read-outs that look alike come from different tables or passages of the source.

Key:
[1] = test system: HIV-1 strain IIIB; test: Inhibition of replication of HIV-1 (IIIB strain) in MT-4 cells, MTT assay; format: cell-based; conditions: Human immunodeficiency virus 1, IIIB, MT4, 120 h; MT-4 cells, MTT assay, five days after infection, 50% protection from cytopathic effect; read-out: EC50 (μM) HIV-1 (IIIB)
[2] = test system: HIV-2 strain (ROD); test: Inhibition of replication of HIV-2 (ROD strain) in MT-4 cells, MTT assay; format: cell-based; conditions: Human immunodeficiency virus 2, MT4, 120 h; MT-4 cells, MTT assay, five days after infection, 50% protection from cytopathic effect; read-out: EC50 (μM) HIV-2 (ROD)
[3] = test system: poliovirus (PV type 1); test: microbe, parasite or virus in culture; format: cell-based; conditions: Enterovirus C, read-out: PV-1 EC50
[4] = test system: poliovirus (PV type 2); test: microbe, parasite or virus in culture; format: cell-based; conditions: Enterovirus C, read-out: PV-2 EC50
[5] = test system: poliovirus (PV type 3); test: microbe, parasite or virus in culture; format: cell-based; conditions: Enterovirus C, read-out: PV-3 EC50
[6] = in vitro; conditions: human
[7] = in vitro; conditions: African green monkey, PV CC50
[8] = in vitro; conditions: human, PV CC50

For `Cc1cccc(NC(=O)N2CCN(c3nc(-c4ccccc4)nc4sc(-c5ccc(F)cc5)cc34)CC2)c1` [Example 360, 4-(6-(4-fluorophenyl)-2-phenylthieno[2,3-d]pyrimidin-4-yl)-N-m-tolylpiperazine-1-carboxamide], the EC50 [1] was > 239 µM, the EC50 [2] was > 239 µM and the EC50 ([3]; HeLa) was > 50 µg/mL. The EC50 ([3]; Vero) was > 50 µg/mL, the EC50 ([4]; HeLa) was ≥ 50 µg/mL and the EC50 ([4]; Vero) was 10.5 µg/mL (≈ 20.1 µM). For the same compound, the EC50 ([5]; HeLa) was > 50 µg/mL, the EC50 ([5]; Vero) was > 50 µg/mL and the CC50 [6] was > 239 µM. For the same compound, the CC50 [7] was 93.4 µg/mL (≈ 178 µM) and the CC50 [8] was > 50 µg/mL.
In the case of `O=C(COc1ccc(Cl)cc1)N1CCN(c2ncnc3oc(Cc4ccc(F)cc4)nc23)CC1` [Example 170, 2-(4-chlorophenoxy)-1-(4-(2-(4-fluorobenzyl)oxazolo[5,4-d]pyrimidin-7-yl)piperazin-1-yl)ethanone], the EC50 [1] is reported as 4.03 µM, the EC50 [2] is reported as > 50 µM and the EC50 ([3]; HeLa) is reported as > 50 µg/mL. The EC50 ([3]; Vero) was > 50 µg/mL, the EC50 ([4]; HeLa) was ≥ 50 µg/mL and the EC50 ([4]; Vero) was 1.76 µg/mL (≈ 3.65 µM). For the same compound, the EC50 ([5]; HeLa) was > 50 µg/mL, the EC50 ([5]; Vero) was > 50 µg/mL and the CC50 [6] was > 50 µM. The CC50 [7] was 105 µg/mL (≈ 218 µM) and the CC50 [8] was > 50 µg/mL.
In the case of `Cc1nc(N2CCN(C(=O)COc3ccc(Cl)cc3)CC2)c2nc(-c3ccc(F)cc3)sc2n1` [Example 47, 2-(4-chlorophenoxy)-1-(4-(2-(4-fluorophenyl)-5-methylthiazolo[5,4-d]pyrimidin-7-yl)piperazin-1-yl)ethanone], the EC50 [1] is reported as > 50 µM, the EC50 [2] is reported as > 50 µM and the EC50 ([3]; HeLa) is reported as > 50 µg/mL. For the same compound, the EC50 ([3]; Vero) was 0.64 µg/mL (≈ 1.29 µM), the EC50 ([4]; HeLa) was ≥ 50 µg/mL and the EC50 ([4]; Vero) was 0.35 µg/mL (≈ 0.703 µM). The EC50 ([5]; HeLa) was > 50 µg/mL, the EC50 ([5]; Vero) was > 50 µg/mL and the CC50 [6] was > 50 µM. The CC50 [7] was > 150 µg/mL and the CC50 [8] was > 50 µg/mL.
With `Nc1nc(N2CCN(C(=O)COc3ccc(Cl)cc3)CC2)c2nc(Cc3ccc(F)cc3)sc2n1` [Example 46, 1-(4-(5-amino-2-(4-fluorobenzyl)thiazolo[5,4-d]pyrimidin-7-yl)piperazin-1-yl)-2-(4-chlorophenoxy)ethanone] the EC50 [1] was 0.67 µM, the EC50 [2] was 1.15 µM and the EC50 ([3]; HeLa) was 0.11 µg/mL (≈ 0.214 µM). It also gave an EC50 ([3]; Vero) of 0.12 µg/mL (≈ 0.234 µM), an EC50 ([4]; HeLa) of 0.039 µg/mL (≈ 0.076 µM) and an EC50 ([4]; Vero) of 0.14 µg/mL (≈ 0.273 µM). The EC50 ([5]; HeLa) was 0.11 µg/mL (≈ 0.214 µM), the EC50 ([5]; Vero) was > 50 µg/mL and the CC50 [6] was 164 µM. The CC50 [7] was 133 µg/mL (≈ 259 µM) and the CC50 [8] was > 50 µg/mL.
With `Nc1nc(N2CCN(C(=O)CCOc3ccc(F)cc3)CC2)c2nc(CCc3ccc(F)cc3)sc2n1` [Example 55, 1-(4-(5-amino-2-(4-fluorophenethyl)thiazolo[5,4-d]pyrimidin-7-yl)piperazin-1-yl)-3-(4-fluorophenoxy)propan-1-one] the EC50 [1] was > 57.1 µM, the EC50 [2] was > 57.1 µM and the EC50 ([3]; HeLa) was > 50 µg/mL. For the same compound, the EC50 ([3]; Vero) was > 50 µg/mL, the EC50 ([4]; HeLa) was ≥ 50 µg/mL and the EC50 ([4]; Vero) was ≥ 50 µg/mL. For the same compound, the EC50 ([5]; HeLa) was > 50 µg/mL, the EC50 ([5]; Vero) was > 50 µg/mL and the CC50 [6] was 57.1 µM. The CC50 [7] was 94.9 µg/mL (≈ 181 µM) and the CC50 [8] was > 50 µg/mL.
For `O=C(O)c1nc(N2CCN(C(=O)COc3ccc(Cl)cc3)CC2)c2cc(-c3ccc(F)cc3)sc2n1` [Example 357, 4-(4-(2-(4-chlorophenoxy)acetyl)piperazin-1-yl)-6-(4-fluorophenyl)thieno[2,3-d]pyrimidine-2-carboxylic acid], the EC50 [1] was 157 µM, the EC50 [2] was > 237 µM and the EC50 ([3]; HeLa) was > 50 µg/mL. For the same compound, the EC50 ([3]; Vero) was > 50 µg/mL, the EC50 ([4]; HeLa) was ≥ 50 µg/mL and the EC50 ([4]; Vero) was > 50 µg/mL. The EC50 ([5]; HeLa) was > 50 µg/mL, the EC50 ([5]; Vero) was > 50 µg/mL and the CC50 [6] was > 237 µM. For the same compound, the CC50 [7] was 61.4 µg/mL (≈ 117 µM) and the CC50 [8] was > 50 µg/mL.
In the case of `CC(c1ccc(F)cc1)c1nc2c(N3CCN(C(=O)COc4ccc(Cl)cc4)CC3)nc(N)nc2s1` (centres unmarked) [Example 66, 1-(4-(5-amino-2-(1-(4-fluorophenyl)ethyl)thiazolo[5,4-d]pyrimidin-7-yl)piperazin-1-yl)-2-(4-chlorophenoxy)ethanone], the EC50 [1] is reported as > 50 µM, the EC50 [2] is reported as > 50 µM and the EC50 ([3]; HeLa) is reported as > 50 µg/mL. The EC50 ([3]; Vero) was 0.29 µg/mL (≈ 0.55 µM), the EC50 ([4]; HeLa) was ≥ 50 µg/mL and the EC50 ([4]; Vero) was 0.11 µg/mL (≈ 0.209 µM). For the same compound, the EC50 ([5]; HeLa) was > 50 µg/mL, the EC50 ([5]; Vero) was 0.56 µg/mL (≈ 1.06 µM) and the CC50 [6] was > 50 µM. The CC50 [7] was 130 µg/mL (≈ 246 µM) and the CC50 [8] was > 50 µg/mL.
